In brackets after ≈: the same amount, converted by molar mass.
Key:
[1] = tested on: Mycobacterium tuberculosis; assay: Antitubercular activity against Mycobacterium tuberculosis H37Rv assessed as bacterial growth inhibition incubated for 24 hrs by MABA assay; type: functional
Bacillus cereus = assay: Antimicrobial activity against Bacillus cereus ATCC14579 assessed as diameter of inhibition zone at 20 mg/ml incubated for 24 hrs by disk diffusion method; type: functional; details: read-out: DIZ
Staphylococcus aureus [2] = assay: Antimicrobial activity against Staphylococcus aureus NCTC7447 assessed as diameter of inhibition zone at 20 mg/ml incubated for 24 hrs by disk diffusion method; type: functional; details: read-out: DIZ
Klebsiella pneumoniae = assay: Antimicrobial activity against Klebsiella pneumoniae UC57 assessed as diameter of inhibition zone at 20 mg/ml incubated for 24 hrs by disk diffusion method; type: functional; details: read-out: DIZ
Pseudomonas aeruginosa = assay: Antimicrobial activity against Pseudomonas aeruginosa ATCC 27853 assessed as diameter of inhibition zone at 20 mg/ml incubated for 24 hrs by disk diffusion method; type: functional; details: read-out: DIZ
Escherichia coli [3] = assay: Antimicrobial activity against Escherichia coli ATCC 14169 assessed as diameter of inhibition zone at 20 mg/ml incubated for 24 hrs by disk diffusion method; type: functional; details: read-out: DIZ
Staphylococcus aureus [4] = assay: Antibacterial activity against Staphylococcus aureus assessed as diameter of inhibition zone; type: functional
Bacillus subtilis = assay: Antibacterial activity against Bacillus subtilis assessed as diameter of inhibition zone; type: functional
Escherichia coli [5] = assay: Antibacterial activity against Escherichia coli assessed as diameter of inhibition zone; type: functional
Salmonella typhimurium = assay: Antibacterial activity against Salmonella typhimurium assessed as diameter of inhibition zone; type: functional, Salmonella enterica subsp. enterica serovar Typhimurium
HepG2 = assay: Anticancer activity against human HepG2 cells assessed as reduction in cell viability; type: functional, cell-based
MCF7 [6] = assay: Anticancer activity against human MCF7 cells assessed as reduction in cell viability; type: functional, cell-based
HCT-116 = assay: cells; details: Homo sapiens
[7] = Antioxidant activity assessed as DPPH radical scavenging activity incubated for 20 mins by spectrophotometric analysis; type: functional; parameters: concentration or dose not given beside the values
[8] = Antioxidant activity assessed as hydroxyl radical scavenging activity incubated for 5 mins by spectrophotometric analysis; type: functional; parameters: concentration or dose not given beside the values
Alpha-glucosidase = Alpha-glucosidase (Saccharomyces cerevisiae S288c, UniProt P53341+P38158+P07265); assay: Inhibition of Saccharomyces cerevisiae alpha-glucosidase preincubated for 5 mins followed by PNP-GLUC substrate addition and measured after 20 mins by spectroscopic analysis; type: protein assay
Albumin = Albumin (Bos taurus, UniProt P02769); assay: […] bovine serum albumin denaturation incubated for 23 mins by UV-Visible spectrophotometry
[9] = Inhibition of porcine pancreatic alpha-amylase preincubated for 10 mins followed by substrate starch addition and measured after 10 mins by colorimetric analysis; parameters: species or system Sus scrofa
MCF7 [10] = assay: cells; details: Homo sapiens, MCF7, 48 h

Sequence of Albumin (P02769 whole entry): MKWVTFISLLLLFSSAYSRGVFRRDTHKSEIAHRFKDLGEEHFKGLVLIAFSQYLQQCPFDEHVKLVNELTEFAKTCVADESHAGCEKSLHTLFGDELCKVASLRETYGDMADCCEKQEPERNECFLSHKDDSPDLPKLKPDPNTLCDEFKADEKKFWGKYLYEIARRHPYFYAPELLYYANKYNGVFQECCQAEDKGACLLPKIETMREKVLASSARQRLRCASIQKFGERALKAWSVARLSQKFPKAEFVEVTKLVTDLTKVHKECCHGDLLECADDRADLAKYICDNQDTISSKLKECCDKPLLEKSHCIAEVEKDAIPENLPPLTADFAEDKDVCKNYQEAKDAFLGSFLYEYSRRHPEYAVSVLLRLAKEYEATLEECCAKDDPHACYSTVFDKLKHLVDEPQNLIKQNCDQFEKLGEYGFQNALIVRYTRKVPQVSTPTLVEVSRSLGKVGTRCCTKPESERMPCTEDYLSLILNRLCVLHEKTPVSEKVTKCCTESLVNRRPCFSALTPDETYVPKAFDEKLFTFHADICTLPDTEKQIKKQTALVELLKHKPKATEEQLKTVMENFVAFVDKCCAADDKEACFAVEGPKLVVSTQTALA

O=c1nc2c3c([nH]1)Oc1ccc(O)cc1C3c1c(c3ccccc3oc1=O)O2 (configuration not stated)
MIC [1]: 50 µg/mL (≈ 134 µM)

N#CC1=C(N)Oc2[nH]c(=O)[nH]c(=O)c2C1c1ccc([N+](=O)[O-])cc1 (configuration not stated)
zone of inhibition at 20000 µg/mL (Bacillus cereus): 11 mm
zone of inhibition at 20000 µg/mL (Staphylococcus aureus [2]): 4 mm
zone of inhibition at 20000 µg/mL (Klebsiella pneumoniae): 4 mm
zone of inhibition at 20000 µg/mL (Pseudomonas aeruginosa): 3 mm
zone of inhibition at 20000 µg/mL (Escherichia coli [3]): 12 mm
diameter of the inhibition zone (DIZ) (Staphylococcus aureus [4]): 16 mm
diameter of the inhibition zone (DIZ) (Bacillus subtilis): 18 mm
diameter of the inhibition zone (DIZ) (Escherichia coli [5]): 16 mm
diameter of the inhibition zone (DIZ) (Salmonella typhimurium): 14 mm

COc1ccc(C2c3c([nH]c(=O)[nH]c3=O)Oc3ncn(-c4ccc(C)cc4)c(=N)c32)cc1 (configuration not stated)
IC50 (HepG2): 2.09 µM
IC50 (MCF7 [6]): 2.43 µM
IC50 (HCT-116): 2.61 µM

COc1ccc(C2c3[nH]c(=O)[nH]c(=O)c3Oc3c2c(=O)oc2ccccc32)c(O)c1 (configuration not stated)
Activity [7]: 59.1%
Activity [8]: 54.3%

O=C(C1=C(c2ccccc2O)Oc2[nH]c(=S)[nH]c(=O)c2C1c1ccc(O)cc1)N1CCCCC1 (configuration not stated)
IC50 (Alpha-glucosidase): 3553 µM
IC50 (Albumin): 19.7 µM
IC50 [9]: 27.1 µM

O=c1[nH]cc(F)c(=O)[nH]1 [FLUOROURACIL]
IC50 (MCF7 [10]): 5.4 µM

O=c1nc2c3c([nH]1)Oc1c(Cl)cc(Cl)cc1C3c1c(c3ccccc3oc1=O)O2 (configuration not stated)
MIC [1]: 50 µg/mL (≈ 117 µM)

N#CC1=C(N)Oc2[nH]c(=O)[nH]c(=O)c2C1c1cccc(O)c1 (configuration not stated)
zone of inhibition at 20000 µg/mL (Bacillus cereus): 10 mm
zone of inhibition at 20000 µg/mL (Staphylococcus aureus [2]): 15 mm
zone of inhibition at 20000 µg/mL (Klebsiella pneumoniae): 8 mm
zone of inhibition at 20000 µg/mL (Pseudomonas aeruginosa): 15 mm
zone of inhibition at 20000 µg/mL (Escherichia coli [3]): 14 mm

N#CC1=C(N)Oc2[nH]c(=O)[nH]c(=O)c2C1c1ccc(F)cc1 (configuration not stated)
diameter of the inhibition zone (DIZ) (Bacillus subtilis): 10 mm
diameter of the inhibition zone (DIZ) (Escherichia coli [5]): 8 mm
diameter of the inhibition zone (DIZ) (Salmonella typhimurium): 12 mm

C[C@H]1O[C@H](O[C@H]2[C@H](O)[C@@H](O)[C@@H](O[C@H]3[C@H](O)[C@@H](O)C(O)O[C@@H]3CO)O[C@@H]2CO)[C@H](O)[C@@H](O)[C@@H]1N[C@H]1C=C(CO)[C@@H](O)[C@H](O)[C@H]1O (some centres not stated) [ACARBOSE]
IC50 [9]: 0.214 µM

O=c1[nH]c2c(c(=O)[nH]1)Oc1c(c(=O)oc3ccccc13)C2c1ccc(F)cc1 (configuration not stated)
Activity [7]: 70.1%
Activity [8]: 62.1%

NC(=O)c1cnccn1 [PYRAZINAMIDE]
MIC [1]: 3.12 µg/mL (≈ 25.4 µM)

O=c1[nH]c2c(c(=O)[nH]1)Oc1c(c(=O)oc3ccccc13)C2c1c(Cl)cccc1Cl (configuration not stated)
Activity [7]: 71.2%
Activity [8]: 65.4%

O=C(C1=C(c2ccccc2O)Oc2[nH]c(=S)[nH]c(=O)c2C1c1cc2ccccc2cc1O)N1CCCCC1 (configuration not stated)
IC50 (Alpha-glucosidase): 5337 µM
IC50 (Albumin): 20.1 µM
IC50 [9]: 6.49 µM

CN[C@@H]1[C@H](O[C@H]2[C@H](O[C@H]3[C@H](O)[C@@H](O)[C@H](N=C(N)N)[C@@H](O)[C@@H]3N=C(N)N)O[C@@H](C)[C@]2(O)C=O)O[C@@H](CO)[C@H](O)[C@H]1O [STREPTOMYCIN]
zone of inhibition at 20000 µg/mL (Bacillus cereus): 16 mm
zone of inhibition at 20000 µg/mL (Staphylococcus aureus [2]): 18 mm
zone of inhibition at 20000 µg/mL (Klebsiella pneumoniae): 18 mm
zone of inhibition at 20000 µg/mL (Pseudomonas aeruginosa): 16 mm
zone of inhibition at 20000 µg/mL (Escherichia coli [3]): 18 mm
diameter of the inhibition zone (DIZ) (Staphylococcus aureus [4]): 16 mm
diameter of the inhibition zone (DIZ) (Bacillus subtilis): 18 mm
diameter of the inhibition zone (DIZ) (Escherichia coli [5]): 20 mm
diameter of the inhibition zone (DIZ) (Salmonella typhimurium): 18 mm
MIC [1]: 6.25 µg/mL (≈ 10.7 µM)

O=c1nc2c3c([nH]1)Oc1c(O)cccc1C3c1c(c3ccccc3oc1=O)O2 (configuration not stated)
MIC [1]: 50 µg/mL (≈ 134 µM)

COc1ccc(C2c3c([nH]c(=O)[nH]c3=O)Oc3ncn(-c4ccccc4N)c(=N)c32)cc1 (configuration not stated)
IC50 (HepG2): 2.09 µM
IC50 (MCF7 [6]): 2.43 µM
IC50 (HCT-116): 2.61 µM

Cc1ccc(C2C(C(=O)N3CCCCC3)=C(c3ccccc3O)Oc3[nH]c(=S)[nH]c(=O)c32)cc1 (configuration not stated)
IC50 (Alpha-glucosidase): 4000 µM
IC50 (Albumin): 19.5 µM
IC50 [9]: 14.1 µM

N#CC1=C(N)Oc2[nH]c(=O)[nH]c(=O)c2C1c1ccc(O)cc1 (configuration not stated)
zone of inhibition at 20000 µg/mL (Bacillus cereus): 14 mm
zone of inhibition at 20000 µg/mL (Staphylococcus aureus [2]): 15 mm
zone of inhibition at 20000 µg/mL (Klebsiella pneumoniae): 10 mm
zone of inhibition at 20000 µg/mL (Pseudomonas aeruginosa): 15 mm
zone of inhibition at 20000 µg/mL (Escherichia coli [3]): 15 mm
diameter of the inhibition zone (DIZ) (Staphylococcus aureus [4]): 10 mm
diameter of the inhibition zone (DIZ) (Escherichia coli [5]): 10 mm
diameter of the inhibition zone (DIZ) (Salmonella typhimurium): 10 mm

Reference: ChEMBL document CHEMBL5241112, “Insights into the recent progress in the medicinal chemistry of pyranopyrimidine analogs” (RSC Med Chem, 2022)
